Measurements: patent publication US5091521A, “Cis-platinum complexes, a process for the preparation thereof, and pharmaceuticals containing these compounds” (priority 1986, dated 1992)

Assays:
[1] = test system: L1210 leukemia cells; experiment: Colonization by L1210 leukemia cells in soft agar (cytostatic activity in vitro); format: cell-based, mouse; conditions: L1210 colony formation in soft agar, 7 days
Experimental: The cytostatic activity of the compounds according to the invention is determined on L1210 leukemia cells of the mouse. In detail, the following test systems were used:
a) Colonization by L1210 leukemia cells in soft agar
In this test cytostatically active substances cause the number of colonies observed to be reduced compared to an untreated control. In detail, the test is carried out as follows:
500 leukemia cells per plate are incubated for 1 hour at 37° C. with different concentrations of the test substance. The cells are subsequently washed twice with McCoy 5A medium and finally poured out into petri dishes after adding 0.3% of agar. Controls are incubated only with fresh medium. Instead of incubating for one hour, different concentrations and test substances are in many cases mixed with the upper agar layer in order to thus achieve continuous exposition of the cells over the entire incubation time. After solidification of the agar, the plates are incubated in an incubator for 7 days at 37° C. (5% by volume of CO2, 95% relative atmospheric humidity). The number of colonies produced with a diameter of more than 60 μm is subsequently counted. The results are given as the number of colonies in the treated agar plate, in per cent of the untreated control. From the dose-action curve thus attained, the IC50 is determined as a measure of the activity of the substance.

[2] = test system: L1210 leukemia; experiment: In vivo activity of the platinum complexes against L1210 leukemia of the mouse; set-up: optimum Dose (greatest antitumoral effect), L1210: unit not given here; conditions: for T/C % L1210 (at optimum dose): mean survival time vs untreated control; for cytostatic activity in the "in vivo" test using the L1210 tumor cell line: in words
Experimental: c) In vivo activity of the platinum complexes against L1210 leukemia of the mouse
Ascitic fluid is removed under sterile conditions from DBA2 mice (female, 18-20 g) 7 days after implantation. The ascites is washed three times with PBS, counted, and adjusted to a cell number of 10^6 in 0.2 ml of PBS.
10^6 cells, suspended in 0.2 ml of PBS, are subsequently injected intraperitoneally into DBF1 mice (female, 18-20 g). 6 animals per group are employed for each substance concentration or as control.
Determination of the antitumoral activity
a) The animals are weighed on days 1 and 5 after injection of the test substance. A weight loss of more than 20% on day 5 is regarded as an indicator of a toxic substance action.
b) At the end of the experiment (death of all animals or surviving animals on day 60), the mean survival time of the animals in each group is determined, so long as at least 65% of the animals were still living on day 5 of the experiment. The average survival time is determined exclusively for animals dying during the experiment. Long-term survivors (LTS) are not taken into account in this calculation and are specified separately.
From the mean survival time (MST) of the […] group and of the control group (MSTc), the antitumoral activity (T/C) for each substance concentration is determined in per cent of the untreated control from the following formula: [formula]
The dose which causes the greatest antitumoral effect (optimal dosage) and in each case one dose step above and below this dose are collated in Table 1. Animals which are still living on day 60 of the experiment are listed separately as "long-term survivors".

[3] = Solubility in water; format: physicochemical
[4] = test system: NMRI mice; experiment: Determination of the acute toxicity; format: in vivo, mouse; conditions: 1 × i.p., survival on day 14
Experimental: b) Determination of the acute toxicity
In order to determine the acute toxicity, NMRI mice are injected intraperitoneally on day 0 with various doses of a test substance, dissolved in 0.5 ml of 5% glucose solution. Control groups receive only 0.5 ml of 5% strength glucose solution. 5 mice are used per concentration of the test substance. On day 14, the number of surviving mice is determined, and the LD5, LD50 and LD95 are determined from this according to the Lichtfield Wilcoxon method.

[5] = test system: tumor cells which are resistant towards cis-platin; experiment: Cross resistance to cis-diamminedichloroplatinum(II) in vitro / activity in cisplatin-resistant tumor cells; format: cell-based; conditions: in words
[6] = treatment program 5 × i.p./i.p.
[7] = treatment program 3 × i.p./i.p.
[8] = treatment program 2 × i.p./i.p.

| SMILES | IC50 [1] [µg/mL] | Solubility in water [3] [mg/mL] | LD50 [4] [mg/kg] | optimum Dose (greatest antitumoral effect), L1210 [2, 7] | T/C % L1210 (at optimum dose) [2, 7] [%] | other results |
| --- | --- | --- | --- | --- | --- | --- |
| CC(CN)(CN)COCC(O)CO.[Cl][Pt][Cl] (stereo not drawn) [Compound 13, N,N'-(2-(2',3'-dihydroxypropyloxymethyl)-2-methyl-1,3-propanediamine)dichloroplatinum(II)] | 1.25 | 25 | 57.3 |  |  | optimum Dose (greatest antitumoral effect), L1210 [2, 6]: 8; T/C % L1210 (at optimum dose) [2, 6]: 156% |
| CC(=O)NC1(CO)C[NH][Pt]([Cl])([Cl])[NH]C1 [Compound 17, N,N'-(2-acetamido-2-hydroxymethyl-1,3-propanediamine)di-chloroplatinum(II)] | 1.1 | 10 | 50 to 100 | 30 | 113 |  |
| CC(CN)(CN)CO[C@@H]1CC[C@H](O)[C@@H](CO)O1.[Cl][Pt][Cl] [Compound 15, N,N'-(2-(2',3'-didesoxy-alpha-D-erythrohexopyranosyloxy-methyl)-2-methyl-1,3-propanediamine)dichloroplatinum(II)] | 2.9 | 17 | 1 to 5 |  |  |  |
| CCC(CN)(CN)COC.[Cl][Pt][Cl] [Compound 12, N,N'-(2-ethyl-2-methoxymethyl-1,3-propanediamine)dichloro-platinum(II)] | 0.5 |  | 19 | 3 | 227 | cross resistance in vitro to cis-diamminedichloroplatinum(II) [5]: only partially cross resistant; cytostatic activity in the "in vivo" test using the L1210 tumor cell line [2]: high cytostatic activity |
| COCC(C)(CN)CN.O=C([O-])C1(C(=O)[O-])CCC1.[Pt+2] [Compound 31, N,N'-(2-methyloxymethyl-2-methyl-1,3-propanediamine)platinum(II) 1,1-cyclobutanedicarboxylate] | 2.6 | 15 | 250 |  |  | optimum Dose (greatest antitumoral effect), L1210 [2, 8]: 112; LTS (Longterm survivor), L1210 ([2]; treatment program 2 × i.p./i.p., optimum dose, animals living on day 60): 3/6; T/C % L1210 (at optimum dose) [2, 8]: 226% |
| COCC(C)(CN)CN.[Cl][Pt][Cl] [Compound 11, N,N'-(2-methoxymethyl-2-methyl-1,3-propanediamine)dichloro-platinum(II)] | 1.4 | 3 |  |  |  |  |
| N.N.[Cl][Pt][Cl] [Cisplatin, cis-diamminedichloroplatinum (II), reference compound] | 0.04 |  |  | 4 | 157 |  |
| CCC(CN)(CN)COC.O=C([O-])CC(=O)[O-].[Pt+2] [corresponding malonate derivative] |  |  |  |  |  | cross resistance in vitro to cis-diamminedichloroplatinum(II) [5]: only partially cross resistant; cytostatic activity in the "in vivo" test using the L1210 tumor cell line [2]: high cytostatic activity |
| COCC(O)COCC(C)(CN)CN.[Cl][Pt][Cl] (stereo not drawn) [Compound 14, N,N'-(2-(2'-hydroxy-3'-methoxypropyloxymethyl)-2-methyl-1,3-propanediamine)dichloroplatinum(II)] | 0.75 | 16 | 57.1 | 4 | 168 |  |
| CCC(CN)(CN)COC.O=C([O-])C1(C(=O)[O-])CCC1.[Pt+2] [Compound 32, N,N'-(2-ethyl-2-methyloxymethyl-1,3-propanediamine)platinum(II) 1,1-cyclobutanedicarboxylate] | 3.6 | 70 | 437 |  |  | T/C % L1210 (at optimum dose) [2, 6]: 194% |
| COCC(C)(CN)CN.O=C([O-])CC(=O)[O-].[Pt+2] [Compound 30, N,N'-(2-methyloxymethyl-2-methyl-1,3-propanediamine)platinum(II) malonate] | 1.4 |  |  |  |  |  |
